Results as given in PMC4503722, “Novel Phenotypic Outcomes Identified for a Public Collection of Approved Drugs from a Publicly Accessible Panel of Assays” (PLoS ONE, 2015).

What was measured:
[1] = tested on: HCT116 cells treated with a GSK3β inhibitor; assay: cells; assay type: cell-based
[2] = tested on: HT-29; assay: cells; assay type: cell-based
[3] = tested on: RKO; assay: cells; assay type: cell-based
[4] = tested on: HCT116; assay: cells; assay type: cell-based
[5] = tested on: SNU-C1; assay: cells; assay type: cell-based
[6] = tested on: endothelial tube formation in co-cultures of ECFCs and ADSCs treated with VEGF; assay: cells; assay type: cell-based, human
[7] = tested on: DLD-1; assay: cells; assay type: cell-based
[8] = tested on: Colo320; assay: cells; assay type: cell-based
[9] = tested on: SW480; assay: cells; assay type: cell-based
[10] = tested on: ECFC/ADSC co-culture cell nuclei number
[11] = assay number 26, GSK3b inhibitor pretreated
[12] = assay number 26, GSK3b inhibitor pretreated, concentration response
[13] = assay number 28, concentration response
[14] = assay number 29, concentration response
[15] = assay number 25, basal, concentration response
[16] = assay number 30, concentration response
[17] = assay number 23, concentration response
[18] = assay number 27, concentration response
[19] = assay number 24, concentration response

**Q.** How did the “GSK3b inh pretreated_Viability ATP HCT116 IC50/EC50” value [1, 11] turn out when `CCCn1cnc2c1c(=O)n(CCCCC(C)=O)c(=O)n2C` [NCGC00015861-09] was run?
**A.** Its value is greater than 20 µM.

**Q.** And the “Basal_Viability ATP HT-29 IC50/EC50” value ([2]; assay number 28, basal)?
**A.** Its value is greater than 20 µM.

**Q.** And the “Basal_Viability ATP RKO IC50/EC50” value ([3]; assay number 29, basal)?
**A.** Its value is greater than 20 µM.

**Q.** And the “Basal_Viability ATP HCT116 IC50/EC50” value ([4]; assay number 25, basal)?
**A.** Its value is greater than 20 µM.

**Q.** What about the “Basal_Viability ATP SNU-C1 IC50/EC50” value ([5]; assay number 30, basal) of the same molecule?
**A.** The value was greater than 20 µM.

**Q.** And the “VEGF_ADSC\ECFC Angio CD31 TubeArea IC50/EC50” value [6]?
**A.** Its value is greater than 10 µM.

**Q.** What about the “Basal_Viability ATP DLD-1 IC50/EC50” value ([7]; assay number 23, basal) of the same molecule?
**A.** Its value is greater than 20 µM.

**Q.** And the “Basal_Viability ATP Colo 320 IC50/EC50” value ([8]; assay number 27, basal)?
**A.** The value was greater than 20 µM.

**Q.** What about the “Basal_Viability ATP SW480 IC50/EC50” value ([9]; assay number 24, basal) of the same molecule?
**A.** Its value is greater than 20 µM.

**Q.** What about the “VEGF_ADSC\ECFC Angio Hoechst NucArea IC50/EC50” value [10] of the same molecule?
**A.** The value was greater than 10 µM.

**Q.** What does the source list for `CCCCCCCC(=O)OCC(COC(=O)CCCCCCC)OC(=O)CCCCCCC` [NCGC00091285-03]?
**A.** GSK3b inh pretreated_Viability ATP HCT116 IC50/EC50 [1, 11]: > 20 µM; Basal_Viability ATP HT-29 IC50/EC50 ([2]; assay number 28, basal): > 20 µM; Basal_Viability ATP RKO IC50/EC50 ([3]; assay number 29, basal): > 20 µM; Basal_Viability ATP HCT116 IC50/EC50 ([4]; assay number 25, basal): > 20 µM; Basal_Viability ATP SNU-C1 IC50/EC50 ([5]; assay number 30, basal): > 20 µM; VEGF_ADSC\ECFC Angio CD31 TubeArea IC50/EC50 [6]: > 10 µM; Basal_Viability ATP DLD-1 IC50/EC50 ([7]; assay number 23, basal): > 20 µM; Basal_Viability ATP Colo 320 IC50/EC50 ([8]; assay number 27, basal): > 20 µM; Basal_Viability ATP SW480 IC50/EC50 ([9]; assay number 24, basal): > 20 µM; VEGF_ADSC\ECFC Angio Hoechst NucArea IC50/EC50 [10]: > 10 µM

**Q.** How did the “GSK3b inh pretreated_Viability ATP HCT116 IC50/EC50” value [1, 12] turn out when `CCCCCCOC(=O)c1cccnc1` [NCGC00160591-02] was run?
**A.** Its value is greater than 20 µM.

**Q.** What about the “Basal_Viability ATP HT-29 IC50/EC50” value [2, 13] of the same molecule?
**A.** Its value is greater than 20 µM.

**Q.** What about the “Basal_Viability ATP RKO IC50/EC50” value [3, 14] of the same molecule?
**A.** The value was greater than 20 µM.

**Q.** What about the “Basal_Viability ATP HCT116 IC50/EC50” value [4, 15] of the same molecule?
**A.** Its value is greater than 20 µM.

**Q.** And the “Basal_Viability ATP SNU-C1 IC50/EC50” value [5, 16]?
**A.** Its value is greater than 20 µM.

**Q.** And the “VEGF_ADSC\ECFC Angio CD31 TubeArea IC50/EC50” value [6]?
**A.** Its value is greater than 10 µM.

**Q.** What about the “Basal_Viability ATP DLD-1 IC50/EC50” value [7, 17] of the same molecule?
**A.** The value was greater than 20 µM.

**Q.** What about the “Basal_Viability ATP Colo 320 IC50/EC50” value [8, 18] of the same molecule?
**A.** The value was greater than 20 µM.

**Q.** And the “Basal_Viability ATP SW480 IC50/EC50” value [9, 19]?
**A.** The value was greater than 20 µM.

**Q.** And the “VEGF_ADSC\ECFC Angio Hoechst NucArea IC50/EC50” value [10]?
**A.** Its value is greater than 10 µM.

**Q.** Which results are given for `Nc1c2ccccc2nc2ccccc12` [NCGC00094857-05]?
**A.** IC50 ([1]; assay number 26, GSK3b inhibitor pretreated, read-out: GSK3b inh pretreated_Viability ATP HCT116 summarized IC50): 3.87 µM; IC50 ([2]; assay number 28, basal, read-out: Basal_Viability ATP HT-29 summarized IC50): > 20 µM; IC50 ([3]; assay number 29, basal, read-out: Basal_Viability ATP RKO summarized IC50): > 6.67 µM; IC50 ([4]; assay number 25, basal, read-out: Basal_Viability ATP HCT116 summarized IC50): 2.02 µM; IC50 ([5]; assay number 30, basal, read-out: Basal_Viability ATP SNU-C1 summarized IC50): > 6.67 µM; IC50 ([6]; read-out: VEGF_ADSC\ECFC Angio CD31 TubeArea summarized IC50): > 10 µM; IC50 ([7]; assay number 23, basal, read-out: Basal_Viability ATP DLD-1 summarized IC50): > 20 µM; IC50 ([8]; assay number 27, basal, read-out: Basal_Viability ATP Colo 320 summarized IC50): 8.81 µM; IC50 ([9]; assay number 24, basal, read-out: Basal_Viability ATP SW480 summarized IC50): > 20 µM; IC50 ([10]; read-out: VEGF_ADSC\ECFC Angio Hoechst NucArea summarized IC50): > 10 µM

**Q.** `O=C1c2ccccc2C(=O)C1C(=O)C(c1ccccc1)c1ccccc1` [NCGC00160553-03] was tested. Which “IC50/EC50, GSK3b inh pretreated_Viability ATP HCT116 (assay number 26)” value [1] did it give?
**A.** Its value is 0.5674 µM.

**Q.** And the “IC50/EC50, Basal_Viability ATP HT-29 (assay number 28)” value [2]?
**A.** The value was 4.4845 µM.

**Q.** And the “IC50/EC50, Basal_Viability ATP RKO (assay number 29)” value [3]?
**A.** Its value is 1.5932 µM.

**Q.** And the “IC50/EC50, Basal_Viability ATP HCT116 (assay number 25)” value [4]?
**A.** The value was 0.5307 µM.

**Q.** What about the “IC50/EC50, Basal_Viability ATP SNU-C1 (assay number 30)” value [5] of the same molecule?
**A.** Its value is 4.0068 µM.

**Q.** And the “IC50/EC50, VEGF_ADSC\ECFC Angio CD31 TubeArea (assay number 2)” value [6]?
**A.** The value was greater than 10 µM.

**Q.** What about the “IC50/EC50, Basal_Viability ATP DLD-1 (assay number 23)” value [7] of the same molecule?
**A.** The value was 1.326 µM.

**Q.** And the “IC50/EC50, Basal_Viability ATP Colo 320 (assay number 27)” value [8]?
**A.** Its value is 0.6211 µM.

**Q.** And the “IC50/EC50, Basal_Viability ATP SW480 (assay number 24)” value [9]?
**A.** The value was 0.5361 µM.

**Q.** What about the “IC50/EC50, VEGF_ADSC\ECFC Angio Hoechst NucArea (assay number 3)” value [10] of the same molecule?
**A.** Its value is greater than 10 µM.

**Q.** For `O=C(Nc1ccc(Br)cc1)c1cc(Br)c(Br)s1` [NCGC00160448-02], which “GSK3b inh pretreated_Viability ATP HCT116 IC50/EC50” value [1, 11] is on record?
**A.** The value was 0.3423 µM.

**Q.** And the “Basal_Viability ATP HT-29 IC50/EC50” value ([2]; assay number 28, basal)?
**A.** The value was 0.5199 µM.

**Q.** What about the “Basal_Viability ATP RKO IC50/EC50” value ([3]; assay number 29, basal) of the same molecule?
**A.** The value was 0.4312 µM.

**Q.** And the “Basal_Viability ATP HCT116 IC50/EC50” value ([4]; assay number 25, basal)?
**A.** Its value is 0.5412 µM.

**Q.** And the “Basal_Viability ATP SNU-C1 IC50/EC50” value ([5]; assay number 30, basal)?
**A.** The value was 1.0991 µM.

**Q.** What about the “VEGF_ADSC\ECFC Angio CD31 TubeArea IC50/EC50” value [6] of the same molecule?
**A.** Its value is greater than 10 µM.

**Q.** What about the “Basal_Viability ATP DLD-1 IC50/EC50” value ([7]; assay number 23, basal) of the same molecule?
**A.** The value was 0.3353 µM.

**Q.** What about the “Basal_Viability ATP Colo 320 IC50/EC50” value ([8]; assay number 27, basal) of the same molecule?
**A.** Its value is 0.018 µM.

**Q.** And the “Basal_Viability ATP SW480 IC50/EC50” value ([9]; assay number 24, basal)?
**A.** The value was 0.1229 µM.

**Q.** And the “VEGF_ADSC\ECFC Angio Hoechst NucArea IC50/EC50” value [10]?
**A.** The value was greater than 10 µM.

**Q.** For `C=CC(C)(O)CCC=C(C)CCC=C(C)C` (stereo not shown) [NCGC00344526-01], which “GSK3b inh pretreated_Viability ATP HCT116 IC50/EC50” value [1, 12] is on record?
**A.** Its value is greater than 20 µM.

**Q.** And the “Basal_Viability ATP HT-29 IC50/EC50” value [2, 13]?
**A.** The value was greater than 20 µM.

**Q.** And the “Basal_Viability ATP RKO IC50/EC50” value [3, 14]?
**A.** Its value is greater than 20 µM.

**Q.** What about the “Basal_Viability ATP HCT116 IC50/EC50” value [4, 15] of the same molecule?
**A.** Its value is greater than 20 µM.

**Q.** What about the “Basal_Viability ATP SNU-C1 IC50/EC50” value [5, 16] of the same molecule?
**A.** The value was greater than 20 µM.

**Q.** What about the “VEGF_ADSC\ECFC Angio CD31 TubeArea IC50/EC50” value [6] of the same molecule?
**A.** Its value is greater than 10 µM.

**Q.** And the “Basal_Viability ATP DLD-1 IC50/EC50” value [7, 17]?
**A.** The value was greater than 20 µM.

**Q.** And the “Basal_Viability ATP Colo 320 IC50/EC50” value [8, 18]?
**A.** The value was 10.2751 µM.

**Q.** And the “Basal_Viability ATP SW480 IC50/EC50” value [9, 19]?
**A.** Its value is greater than 20 µM.

**Q.** And the “VEGF_ADSC\ECFC Angio Hoechst NucArea IC50/EC50” value [10]?
**A.** The value was greater than 10 µM.
